In general, Dmax refers to the largest share of the target that was removed. Read a high Dmax as a fuller loss of target. As a reminder, the DC50 is the midpoint of the concentration-degradation curve.

Some results are limits rather than exact numbers.

Data on 15 compounds can be found in patent US12139492B2 (Endotarget Inc., priority 2021, dated 2024).

Holding throughout (assay type): cell-based
Assay [1] deals with BTK (Homo sapiens, UniProt Q06187). The assay can be described thus: BTK degradation, DC50 and Dmax of Table 1 (cell line not given). Further details: endogenous in cells. The following applies: for DC50: concentration giving 50% reduction of BTK expression level.
The subject of assay [2] is Mino cells. The assay can be described thus: Antiproliferative effect, MTS cell viability assay, Mino cells. The following applies: Homo sapiens, MINO, Mino mantle cell lymphoma cells; read-out: IC50 (anti-proliferation) Mino cells. The gist of the method: (§1)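 Steps: seed B-cell lymphoma line; add compound at 0, 0.001, 0.01, 0.1, 1 or 10 μM; incubate 72 h; add MTS and read reduced tetrazolium (formazan) absorbance at 490 nm.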
In general terms: Tetrazolium dyes change colour on reduction, which living cells bring about.

Assay [3] deals with JeKo-1 cells. The assay can be described thus: Antiproliferative effect, MTS cell viability assay, JeKo-1 cells. To be noted: Homo sapiens; JeKo-1 mantle cell lymphoma cells; read-out: IC50 (anti-proliferation) JeKO-1 cells. Summed up:
as §1

Sequence of BTK (Q06187 whole entry): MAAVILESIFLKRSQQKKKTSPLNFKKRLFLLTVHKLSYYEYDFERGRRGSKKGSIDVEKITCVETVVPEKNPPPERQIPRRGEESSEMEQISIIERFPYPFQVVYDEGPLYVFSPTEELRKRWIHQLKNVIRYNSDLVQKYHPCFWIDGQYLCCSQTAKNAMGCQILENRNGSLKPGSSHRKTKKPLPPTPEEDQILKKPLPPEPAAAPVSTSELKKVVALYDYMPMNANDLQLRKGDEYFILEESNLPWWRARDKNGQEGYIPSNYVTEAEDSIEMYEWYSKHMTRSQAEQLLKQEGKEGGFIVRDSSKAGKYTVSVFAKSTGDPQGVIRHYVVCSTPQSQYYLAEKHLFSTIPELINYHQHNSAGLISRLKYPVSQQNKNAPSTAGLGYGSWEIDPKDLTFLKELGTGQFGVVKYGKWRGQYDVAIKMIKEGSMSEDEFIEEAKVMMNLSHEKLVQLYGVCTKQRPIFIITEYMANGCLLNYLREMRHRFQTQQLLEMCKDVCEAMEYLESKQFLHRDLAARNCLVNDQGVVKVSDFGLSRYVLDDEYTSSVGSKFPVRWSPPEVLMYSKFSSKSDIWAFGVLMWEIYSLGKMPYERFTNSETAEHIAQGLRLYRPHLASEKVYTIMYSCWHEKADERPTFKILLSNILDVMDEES

In the case of `Nc1ncnc2c1c(-c1ccc(Oc3ccccc3)cc1)nn2[C@@H]1CCCN(C(=O)N2CCC(N3CCC(c4ccc5c(c4)CN(C4CCC(=O)NC4=O)C5=O)CC3)CC2)C1` (stereo partly drawn) [Compound 54, 3-(5-(1′-((R)-3-(4-amino-3-(4-phenoxyphenyl)-1H-pyrazolo[3,4-d]pyrimidin-1-yl)piperidine-1-carbonyl)-[1,4′-bipiperidin]-4-yl)-1-oxoisoindolin-2-yl)piperidine-2,6-dione], in assay [1], the greatest degradation seen (Dmax) was above 90% and the half-maximal degradation concentration (DC50) is below 10 nM. Further, in assay [2], the IC50 was below 1000 nM. Moreover, the IC50 in assay [3] was below 1000 nM.

In assay [1], `Nc1ncnc2c1c(-c1ccc(Oc3ccccc3)cc1)nn2[C@@H]1CCCN(C(=O)N2CCC(CN3CCN(c4ccc5c(c4)CN(C4CCC(=O)NC4=O)C5=O)CC3)CC2)C1` (stereo partly drawn) [Compound 56, 3-(5-(4-((1-((R)-3-(4-amino-3-(4-phenoxyphenyl)-1H-pyrazolo[3,4-d]pyrimidin-1-yl)piperidine-1-carbonyl)piperidin-4-yl)methyl)piperazin-1-yl)-1-oxoisoindolin-2-yl)piperidine-2,6-dione] registered a Dmax above 90% and a half-maximal degradation concentration (DC50) below 10 nM. Besides, the IC50 in assay [2] is below 1000 nM. For the same compound, the IC50 in assay [3] is below 1000 nM.

In assay [1], `Nc1ncnc2c1c(-c1ccc(Oc3ccccc3)cc1)nn2[C@@H]1CCCN(C(=O)N2CCN(CC3CCN(c4ccc5c(c4)C(=O)N(C4CCC(=O)NC4=O)C5=O)CC3)CC2)C1` (stereo partly drawn) [Compound 57, 5-(4-((4-((R)-3-(4-amino-3-(4-phenoxyphenyl)-1H-pyrazolo[3,4-d]pyrimidin-1-yl)piperidine-1-carbonyl)piperazin-1-yl)methyl)piperidin-1-yl)-2-(2,6-dioxopiperidin-3-yl)isoindoline-1,3-dione] displayed a Dmax above 90%. Besides, the DC50 in assay [1] is 10 to 50 nM. The IC50 in assay [2] and in assay [3] was 1000 to 10000 nM throughout.

Take `Nc1ncnc2c1c(-c1ccc(Oc3ccccc3)cc1)nn2[C@@H]1CCCN(C(=O)N2CCN(CC3CCN(c4ccc5c(c4)CN(C4CCC(=O)NC4=O)C5=O)CC3)CC2)C1` (stereo partly drawn) [Compound 58, 3-(5-(4-((4-((R)-3-(4-amino-3-(4-phenoxyphenyl)-1H-pyrazolo[3,4-d]pyrimidin-1-yl)piperidine-1-carbonyl)piperazin-1-yl)methyl)piperidin-1-yl)-1-oxoisoindolin-2-yl)piperidine-2,6-dione]: in assay [1], the greatest degradation seen (Dmax) was above 90% and the DC50 fell in the range of 10 to 50 nM. Moreover, the IC50 in assay [2] was below 1000 nM. Also, in assay [3], the IC50 is below 1000 nM.

`Nc1ncnc2c1c(-c1ccc(Oc3ccccc3)cc1)nn2[C@@H]1CCCN(C(=O)N2CCC(CC3CCN(c4ccc5c(c4)C(=O)N(C4CCC(=O)NC4=O)C5=O)CC3)CC2)C1` (stereo partly drawn) [Compound 59, 5-(4-((1-((R)-3-(4-amino-3-(4-phenoxyphenyl)-1H-pyrazolo[3,4-d]pyrimidin-1-yl)piperidine-1-carbonyl)piperidin-4-yl)methyl)piperidin-1-yl)-2-(2,6-dioxopiperidin-3-yl)isoindoline-1,3-dione]: in assay [1], the Dmax is above 90% and the DC50 was in the range of 10 to 50 nM. Moreover, in assay [2], the IC50 is below 1000 nM. Further, the IC50 in assay [3] is below 1000 nM.

For `Nc1ncnc2c1c(-c1ccc(Oc3ccccc3)cc1)nn2[C@@H]1CCCN(C(=O)N2CCC(CC3CCN(c4ccc5c(c4)CN(C4CCC(=O)NC4=O)C5=O)CC3)CC2)C1` (stereo partly drawn) [Compound 60, 3-(5-(4-((1-((R)-3-(4-amino-3-(4-phenoxyphenyl)-1H-pyrazolo[3,4-d]pyrimidin-1-yl)piperidine-1-carbonyl)piperidin-4-yl)methyl)piperidin-1-yl)-1-oxoisoindolin-2-yl)piperidine-2,6-dione], in assay [1], the Dmax was above 90% and the DC50 was below 10 nM. The IC50 in assay [2] is below 1000 nM. For the same compound, the IC50 in assay [3] was below 1000 nM.

Regarding `Nc1ncnc2c1c(-c1ccc(Oc3ccccc3)cc1)nn2[C@@H]1CCCN(C(=O)N2CCC(CN3CCC(c4ccc5c(c4)C(=O)N(C4CCC(=O)NC4=O)C5=O)CC3)CC2)C1` (stereo partly drawn) [Compound 61, 5-(1-((1-((R)-3-(4-amino-3-(4-phenoxyphenyl)-1H-pyrazolo[3,4-d]pyrimidin-1-yl)piperidine-1-carbonyl)piperidin-4-yl)methyl)piperidin-4-yl)-2-(2,6-dioxopiperidin-3-yl)isoindoline-1,3-dione], in assay [1], the Dmax was above 90% and the DC50 was in the range of 10 to 50 nM. Besides, the IC50 in assay [2] is below 1000 nM. The IC50 in assay [3] is below 1000 nM.

Regarding `Nc1ncnc2c1c(-c1ccc(Oc3ccccc3)cc1)nn2[C@@H]1CCCN(C(=O)N2CCC(CN3CCC(c4ccc5c(c4)CN(C4CCC(=O)NC4=O)C5=O)CC3)CC2)C1` (stereo partly drawn) [Compound 62, 3-(5-(1-((1-((R)-3-(4-amino-3-(4-phenoxyphenyl)-1H-pyrazolo[3,4-d]pyrimidin-1-yl)piperidine-1-carbonyl)piperidin-4-yl)methyl)piperidin-4-yl)-1-oxoisoindolin-2-yl)piperidine-2,6-dione], in assay [1], the greatest degradation seen (Dmax) is above 90% and the half-maximal degradation concentration (DC50) lay within 10 to 50 nM. The IC50 in assay [2] was below 1000 nM. For the same compound, the IC50 in assay [3] was below 1000 nM.

In assay [1], `Nc1ncnc2c1c(-c1ccc(Oc3ccccc3)cc1)nn2[C@@H]1CCCN(C(=O)N2CCC(CCN3CCN(c4ccc5c(c4)CN(C4CCC(=O)NC4=O)C5=O)CC3)CC2)C1` (stereo partly drawn) [Compound 64, 3-(5-(4-(2-(1-((R)-3-(4-amino-3-(4-phenoxyphenyl)-1H-pyrazolo[3,4-d]pyrimidin-1-yl)piperidine-1-carbonyl)piperidin-4-yl)ethyl)piperazin-1-yl)-1-oxoisoindolin-2-yl)piperidine-2,6-dione] showed a Dmax above 90% and a DC50 below 10 nM. For the same compound, the IC50 in assay [2] is below 1000 nM. For the same compound, in assay [3], the IC50 lay in the range of 1000 to 10000 nM.

In assay [1], `Nc1ncnc2c1c(-c1ccc(Oc3ccccc3)cc1)nn2[C@@H]1CCCN(C(=O)N2CCN(CCN3CCN(c4ccc5c(c4)C(=O)N(C4CCC(=O)NC4=O)C5=O)CC3)CC2)C1` (stereo partly drawn) [Compound 65, 5-(4-(2-(4-((R)-3-(4-amino-3-(4-phenoxyphenyl)-1H-pyrazolo[3,4-d]pyrimidin-1-yl)piperidine-1-carbonyl)piperazin-1-yl)ethyl)piperazin-1-yl)-2-(2,6-dioxopiperidin-3-yl)isoindoline-1,3-dione] gave a Dmax above 90% and a half-maximal degradation concentration (DC50) below 10 nM. Besides, the IC50 in assay [2] lay in the range of 1000 to 10000 nM. In addition, the IC50 in assay [3] was 1000 to 10000 nM.

In assay [1], `Nc1ncnc2c1c(-c1ccc(Oc3ccccc3)cc1)nn2[C@@H]1CCCN(C(=O)N2CCN(CCN3CCN(c4ccc5c(c4)CN(C4CCC(=O)NC4=O)C5=O)CC3)CC2)C1` (stereo partly drawn) [Compound 66, 3-(5-(4-(2-(4-((R)-3-(4-amino-3-(4-phenoxyphenyl)-1H-pyrazolo[3,4-d]pyrimidin-1-yl)piperidine-1-carbonyl)piperazin-1-yl)ethyl)piperazin-1-yl)-1-oxoisoindolin-2-yl)piperidine-2,6-dione] had a maximal degradation (Dmax) above 90% and a 50% degradation concentration (DC50) below 10 nM. For the same compound, the IC50 in assay [2] was in the range of 1000 to 10000 nM. Further, the IC50 in assay [3] is below 1000 nM.

In assay [1], `Nc1ncnc2c1c(-c1ccc(Oc3ccccc3)cc1)nn2[C@@H]1CCCN(C(=O)N2CCN(CCC3CCN(c4ccc5c(c4)C(=O)N(C4CCC(=O)NC4=O)C5=O)CC3)CC2)C1` (stereo partly drawn) [Compound 67, 5-(4-(2-(4-((R)-3-(4-amino-3-(4-phenoxyphenyl)-1H-pyrazolo[3,4-d]pyrimidin-1-yl)piperidine-1-carbonyl)piperazin-1-yl)ethyl)piperidin-1-yl)-2-(2,6-dioxopiperidin-3-yl)isoindoline-1,3-dione] registered a Dmax above 90% and a DC50 below 10 nM. Besides, the IC50 in assay [2] lay within 1000 to 10000 nM. The IC50 in assay [3] lay within 1000 to 10000 nM.

For `Nc1ncnc2c1c(-c1ccc(Oc3ccccc3)cc1)nn2[C@@H]1CCCN(C(=O)N2CCN(CCC3CCN(c4ccc5c(c4)CN(C4CCC(=O)NC4=O)C5=O)CC3)CC2)C1` (stereo partly drawn) [Compound 68, 3-(5-(4-(2-(4-((R)-3-(4-amino-3-(4-phenoxyphenyl)-1H-pyrazolo[3,4-d]pyrimidin-1-yl)piperidine-1-carbonyl)piperazin-1-yl)ethyl)piperidin-1-yl)-1-oxoisoindolin-2-yl)piperidine-2,6-dione], in assay [1], the Dmax was above 90% and the 50% degradation concentration (DC50) was below 10 nM. The IC50 in assay [2] was in the range of 1000 to 10000 nM. The IC50 in assay [3] was 1000 to 10000 nM.

Regarding `Nc1ncnc2c1c(-c1ccc(Oc3ccccc3)cc1)nn2[C@@H]1CCCN(C(=O)N2CCN(CCN3CCC(c4ccc5c(c4)C(=O)N(C4CCC(=O)NC4=O)C5=O)CC3)CC2)C1` (stereo partly drawn) [Compound 69, 5-(1-(2-(4-((R)-3-(4-amino-3-(4-phenoxyphenyl)-1H-pyrazolo[3,4-d]pyrimidin-1-yl)piperidine-1-carbonyl)piperazin-1-yl)ethyl)piperidin-4-yl)-2-(2,6-dioxopiperidin-3-yl)isoindoline-1,3-dione], in assay [1], the maximal degradation (Dmax) is above 90% and the half-maximal degradation concentration (DC50) was below 10 nM. Besides, the IC50 in assay [2] fell in the range of 1000 to 10000 nM. Moreover, in assay [3], the IC50 was 1000 to 10000 nM.

In assay [1], `Nc1ncnc2c1c(-c1ccc(Oc3ccccc3)cc1)nn2[C@@H]1CCCN(C(=O)N2CCN(CCN3CCC(c4ccc5c(c4)CN(C4CCC(=O)NC4=O)C5=O)CC3)CC2)C1` (stereo partly drawn) [Compound 70, 3-(5-(1-(2-(4-((R)-3-(4-amino-3-(4-phenoxyphenyl)-1H-pyrazolo[3,4-d]pyrimidin-1-yl)piperidine-1-carbonyl)piperazin-1-yl)ethyl)piperidin-4-yl)-1-oxoisoindolin-2-yl)piperidine-2,6-dione] yielded a Dmax above 90% and a DC50 below 10 nM. For the same compound, the IC50 in assay [2] fell in the range of 1000 to 10000 nM. Besides, the IC50 in assay [3] lay within 1000 to 10000 nM.
